{"source": "PubChem BioAssay AID179", "about": "(DTP/NCI, 2004)", "test_system": "CEM cells HIV-1 protection, formazan growth assay", "test": "NCI AIDS Antiviral Assay", "settings": "for IC50: measured here: growth of uninfected CEM cells", "in_short": "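Protection of CEM cells against HIV-1 measured as cell growth via soluble formazan read-out, with five concentrations tested on both infected and uninfected cells; failure to protect may reflect toxicity.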", "note": "Where “and” joins values, the source holds several entries; their conditions need not be identical. Equal values may be shown once. Calls of active or inactive are those of the source.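 How the source made its calls: active means compounds giving half or more protection of infected cells from virus-caused growth loss, again on retest; inactive means the rest.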", "data": [{"compound": "c1ccc2[nH]c(C3=NCCS3)nc2c1", "values": [{"measurement": "EC50", "result": "> 1230", "unit": "µM"}, {"measurement": "IC50", "result": 240, "unit": "µM"}]}, {"compound": "CC(=O)OCC1OC(n2c(=O)[nH]c(=O)c3n[nH]nc32)C(OC(C)=O)C(OC(C)=O)C1OC(C)=O", "note": "(configuration not stated)", "values": [{"measurement": "EC50", "result": "> 269", "unit": "µM"}, {"measurement": "IC50", "result": "> 269", "unit": "µM"}]}, {"compound": "COc1c(Br)cc(C(=O)c2cc(Br)c(OC)c(C(=O)O)c2)cc1C(=O)O", "values": [{"measurement": "EC50", "result": "> 1480", "unit": "µM"}, {"measurement": "IC50", "result": "> 1480", "unit": "µM"}]}, {"compound": "O=C(O)CCCCCCC[n+]1ccccc1", "values": [{"measurement": "EC50", "result": 126, "unit": "µM"}, {"measurement": "IC50", "result": "> 200", "unit": "µM"}]}, {"compound": "CCOC(=O)C1S/C(=N\\C(=N)N[N+](=O)[O-])N=C1C", "note": "(configuration not stated)", "values": [{"measurement": "outcome", "result": "inactive"}]}, {"compound": "NC(=O)C(N)c1ccccc1", "note": "(configuration not stated)", "values": [{"measurement": "EC50", "result": "> 200", "unit": "µM"}, {"measurement": "IC50", "result": "> 200", "unit": "µM"}]}, {"compound": "CCOC(=O)C1=CNN=CC12C(=O)C(C(=O)OCC)CC2C(=O)OCC", "note": "(configuration not stated)", "values": [{"measurement": "EC50", "result": "> 245", "unit": "µM"}, {"measurement": "IC50", "result": "> 245", "unit": "µM"}]}, {"compound": "CCCCCCCCCCCCCCCC(=O)OCC1OC(n2ccc(N)nc2=O)C(O)C1O", "note": "(configuration not stated)", "values": [{"measurement": "EC50", "result": "> 0.2", "unit": "µM"}, {"measurement": "IC50", "result": 0.0129, "unit": "µM"}]}, {"compound": "O=C(NNC(c1ccccc1)C(F)(F)F)c1ccncc1", "note": "(configuration not stated)", "values": [{"measurement": "EC50", "result": "> 200", "unit": "µM"}, {"measurement": "IC50", "result": "> 200", "unit": "µM"}]}, {"compound": "CCOC(O)(NC(=O)C(C(F)(F)F)C(F)(F)F)C(F)(F)F", "note": "(configuration not stated)", "values": [{"measurement": "EC50", "result": "> 200", "unit": "µM"}, {"measurement": "IC50", "result": "> 200", "unit": "µM"}]}, {"compound": "CC1CC(=O)c2ccccc2O1", "note": "(configuration not stated)", "values": [{"measurement": "EC50", "result": "> 200", "unit": "µM"}, {"measurement": "IC50", "result": "> 200", "unit": "µM"}]}, {"compound": "S=C1NC2(CCCCC2)C2=C(CCCC2)S1", "values": [{"measurement": "EC50", "result": "> 141", "unit": "µM"}, {"measurement": "IC50", "result": 12, "unit": "µM"}]}, {"compound": "N#CC(C(=O)/C(=N/N)C(C#N)c1ccccc1)c1ccccc1", "note": "(configuration not stated)", "values": [{"measurement": "EC50", "result": "> 309", "unit": "µM"}, {"measurement": "IC50", "result": "> 309", "unit": "µM"}]}, {"compound": "O=C(CC(C(=O)c1cccs1)c1ccsc1)c1ccc(Cl)cc1", "note": "(configuration not stated)", "values": [{"measurement": "EC50", "result": "> 200", "unit": "µM"}, {"measurement": "IC50", "result": 52.5, "unit": "µM"}]}, {"compound": "CC1=C(C(=O)O)N2C(=O)[C@@H](NC(=O)C(c3ccc(O)cc3)N3CSC(=S)N(C(C)C)C3)C2SC1", "note": "(some centres not stated)", "values": [{"measurement": "EC50", "result": "> 479", "unit": "µM"}, {"measurement": "IC50", "result": 269, "unit": "µM"}]}, {"compound": "CCOc1cnn(-c2ccccc2)c(=O)c1Cl", "values": [{"measurement": "EC50", "result": "> 1000", "unit": "µM"}, {"measurement": "IC50", "result": 437, "unit": "µM"}]}, {"compound": "O=C1C[C@@]23CCC4(CC2CCC[C@H]3O1)OCCO4", "note": "(some centres not stated)", "values": [{"measurement": "outcome", "result": "inactive"}]}, {"compound": "CCOc1ccc2nc(NC(=O)/C(CC(=O)CC(C3=C(O)c4ccccc4CC3=O)c3ccccc3)=N\\O)sc2c1", "note": "(configuration not stated)", "values": [{"measurement": "EC50", "result": "> 4.79", "unit": "µM"}, {"measurement": "IC50", "result": "> 4.79", "unit": "µM"}]}, {"compound": "COc1ccc(C2=C(Cl)c3cc(OC)c(OC)cc3C2=O)cc1OC", "values": [{"measurement": "EC50", "result": "> 200", "unit": "µM"}, {"measurement": "IC50", "result": 1.45, "unit": "µM"}]}, {"compound": "CC(=O)c1c(O)c2c(c(C(C)=O)c1O)OC(C)(C)C=C2", "values": [{"measurement": "EC50", "result": "> 9.55", "unit": "µM"}, {"measurement": "IC50", "result": "> 9.55", "unit": "µM"}]}, {"compound": "CCOC(=O)c1c(SCCCN2CCCCC2)n(-c2ccccc2)c(=S)n(-c2ccccc2)c1=O", "values": [{"measurement": "EC50", "result": "> 37.2", "unit": "µM"}, {"measurement": "IC50", "result": 6.31, "unit": "µM"}]}, {"compound": "O=C(O)c1cc(N=Nc2ccc(CCc3ccc(N=Nc4cc(C(=O)O)c(O)c5ccccc45)cc3S(=O)(=O)O)c(S(=O)(=O)O)c2)c2ccccc2c1O", "values": [{"measurement": "EC50", "result": "> 12.6", "unit": "µM"}, {"measurement": "IC50", "result": "> 12.6", "unit": "µM"}]}, {"compound": "N#Cc1nc(-c2cnccn2)oc1N", "values": [{"measurement": "EC50", "result": "> 200", "unit": "µM"}, {"measurement": "IC50", "result": 182, "unit": "µM"}]}, {"compound": "CC12CCC(=O)N1c1cc(Cl)ccc1N2", "note": "(configuration not stated)", "values": [{"measurement": "EC50", "result": "> 115", "unit": "µM"}, {"measurement": "IC50", "result": "> 115", "unit": "µM"}]}, {"compound": "c1ccc2c3c(ccc2c1)CN1CCCCC1C3", "note": "(configuration not stated)", "values": [{"measurement": "EC50", "result": "> 676", "unit": "µM"}, {"measurement": "IC50", "result": 49, "unit": "µM"}]}, {"compound": "CN(NC(=O)Nc1cccc2ccccc12)c1ccccc1", "values": [{"measurement": "EC50", "result": "> 24.5", "unit": "µM"}, {"measurement": "IC50", "result": "> 24.5", "unit": "µM"}]}, {"compound": "C/C(=C\\CNc1ncnc2nc(Cl)[nH]c12)CO", "values": [{"measurement": "EC50", "result": "> 200", "unit": "µM"}, {"measurement": "IC50", "result": "> 200", "unit": "µM"}]}, {"compound": "O=S(=O)(SSS(=O)(=O)c1ccc(Cl)cc1)c1ccc(Cl)cc1", "values": [{"measurement": "EC50", "result": "> 63.1", "unit": "µM"}, {"measurement": "IC50", "result": "> 63.1", "unit": "µM"}]}, {"compound": "COC1/C=C/OC2(C)Oc3c(C)c(O)c4c(O)c(c(/C=N/N5CC(C)N(Cc6ccccc6)C(C)C5)c(O)c4c3C2=O)NC(=O)C(C)=C/C=C/C(C)C(O)C(C)C(O)C(C)C(OC(C)=O)C1C", "note": "(configuration not stated)", "values": [{"measurement": "EC50", "result": "> 200", "unit": "µM"}, {"measurement": "IC50", "result": 3.09, "unit": "µM"}]}, {"compound": "Nc1ccc(C(=O)Nn2c(-c3ccccc3)nc3ccccc3c2=O)cc1", "values": [{"measurement": "EC50", "result": "> 200", "unit": "µM"}, {"measurement": "IC50", "result": "> 200", "unit": "µM"}]}, {"compound": "COC1CC[C@@H]2CC(=O)CC[C@]2(C)C1=O", "note": "(some centres not stated)", "values": [{"measurement": "outcome", "result": "inactive"}]}, {"compound": "Nc1nc(=O)nc2[nH]c3c4cccc5cccc(c3nc12)c54", "values": [{"measurement": "EC50", "result": "> 200", "unit": "µM"}, {"measurement": "IC50", "result": "141 µM and > 200 µM"}]}, {"compound": "Cc1c(/C=N/N=C/c2[nH]c(C(=O)OC(C)(C)C)c(C)c2C)[nH]c(C(=O)OC(C)(C)C)c1C", "values": [{"measurement": "outcome", "result": "inactive"}]}, {"compound": "COc1cc(CC(C(=O)O)C(=O)O)c(OC)cc1CC(C(=O)O)C(=O)O", "values": [{"measurement": "outcome", "result": "inactive"}]}, {"compound": "N#CCCN(c1ccc(C=Nc2ccccc2Cl)cc1)S(=O)(=O)c1ccccc1", "values": [{"measurement": "EC50", "result": "> 427", "unit": "µM"}, {"measurement": "IC50", "result": 331, "unit": "µM"}]}, {"compound": "N#C/C(=C\\c1ccccc1)c1ccc(Cl)cc1", "values": [{"measurement": "EC50", "result": "> 200", "unit": "µM"}, {"measurement": "IC50", "result": 57.5, "unit": "µM"}]}]}
